The text below walks through data of patent US10166236B2, “Pharmaceutical formulations comprising substituted pyrazolo[5,1-c]pyrido[4,3-e][1,2,4]triazines for treating lysosomal storage disorders” (Perlara PBC, priority 2016, dated 2019).

Assay [1] relates to Coriell GM18453 (I1061T/I1061T) cells. Briefly: Filipin staining of cholesterol in NPC patient fibroblasts. To be noted: 10 μM; for amount of cytoplasmic free/unesterified cholesterol as visualized by filipin staining, relative to vehicle control: 48 hr incubation, FIG. 1. The assay is classed as cell-based, human. Here is the method:
Compound 1 was tested in vitro for its effect on cholesterol localization in NPC fibroblasts. The following experiments utilized Coriell GM18453 (I1061T/I1061T) cells which are immortalized cell lines prepared from NPC patient fibroblasts. These cells have a known deficiency in cholesterol esterification. Compound 1 (FIG. 1B), U18666A (positive control, FIG. 1C), and DMSO (vehicle control, FIG. 1A) were individually dispensed into 96 well In Vitro Scientific glass bottom black walled plates using the Echo acoustic liquid handler for the final concentrations indicated. Cells were suspended in media (DMEM, 5% FBS, 1% P/S, 2 mM L-glutamine) and then added to each well at 1750 cells per well. The final concentration of Compound 1 and […] was 10 μM. After a 48 hr incubation cells were fixed and stained with filipin using components from the Cholesterol Cell Based Detection Kit from Cayman. Filipin was used at a final concentration of 50 μg/mL. Cells were imaged using the ImageXpress from Molecular Devices and analyzed with MetaXpress. […] The experiment was repeated in GM18453 cells except that filipin staining was assessed in one set of wells every 24 hours for a total of five days. FIG. 2A provides an exemplary photomicrograph of a cells treated with vehicle control. There were no notable changes to the filipin staining of the vehicle-treated over the five day culture period, FIG. 2B-2F are representative photomicrographs of the Compound 1-treated cells after 1-5 days in culture, respectively.

In another assay the test system is NPC1 null worms. As to the kind of experiment: Egg count in NPC1 null nematodes (rescue of nematode model of NPC). In kind it is in vivo, C. elegans. To be noted: Day 1 adults; for number of eggs per adult worm relative to DMSO control or SAHA: with or without supplemental cholesterol, p<0.001 relative to DMSO, Student's t-test. The procedure: This experiment tested the ability of Compound 1 to rescue NPC-1 null nematodes. A population of NPC1 null worms was scaled up on large petri plates (100 mm or 60 mm) to produce a large population of gravid adults. One day prior to assay, the adult worms were bleached to obtain all eggs. Eggs were allowed to hatch overnight in M9 by rocking tubes. On day of assay, the presence of L1 larvae was confirmed. A lawn of HB101 bacteria were grown on NGM agar plates (4 ml). The plates were prepared either with or without exogenous cholesterol. […] An additional set of plates prepared with 25% cremaphor alone was used as a second vehicle control. Fifty to seventy L1 larvae were added to each plate and incubated at room temperature for two days. On day 3, L1 worms had matured into Day 1 adults bearing row of eggs. Eggs were counted microscopically and the average number of eggs per adult worm for each incubation condition was calculated. […] There was no statistically significant difference between treatment with DMSO control in the 25% cremaphor carrier relative to the carrier alone (data not shown).

Consider `CN(C)CCCn1ccc2c(nnc3c(-c4ccc(F)cc4)cnn32)c1=O` [Compound 1, 11-[3-(Dimethylamino)propyl]-5-(p-fluorophenyl)-2.3.7.8.11-pentazatricyclo[7.4.0.0^2,6]trideca-1(9),3,5,7,12-pentaen-10-one], for which the “amount of cytoplasmic free/unesterified cholesterol as visualized by filipin staining, relative to vehicle control” value in assay [1] is given as “increase in the amount of cytoplasmic free/unesterified cholesterol”. The “amount of cytoplasmic free/unesterified cholesterol (filipin staining), time course” value in assay [1] (assessed every 24 hours for five days, FIG. 2) was “Increases in the amount of cytoplasmic free/unesterified cholesterol were observed after a 24 hour culture period and the effect was sustained throughout the five day study period”. In addition, the “number of eggs per adult worm relative to DMSO control or SAHA” value in the assay with NPC1 null worms (25 μM, FIG. 3C) is “statistically significant increase in the number of eggs per adult worm”.
In the case of `CCN(CC)CCO[C@H]1CC[C@@]2(C)C(=CC[C@@H]3[C@@H]2CC[C@]2(C)C(=O)CC[C@@H]32)C1` [Compound U18666A], the “amount of cytoplasmic free/unesterified cholesterol as visualized by filipin staining, relative to vehicle control” value in assay [1] was “increase in the amount of cytoplasmic free/unesterified cholesterol”. Also, in the assay with NPC1 null worms (75 μM, FIG. 3B), the “egg laying deficit of NPC null nematodes (eggs per adult worm)” value is given as “significantly exacerbates the egg laying deficit”.
cyclodextrin: the “number of eggs per adult worm relative to DMSO control or SAHA” value in the assay with NPC1 null worms (0.5%, FIG. 3E) is recorded as “statistically significant increase in the number of eggs per adult worm”.
